Experimental data: patent US20200113852A1, “METHODS OF PATIENT SELECTION AND TREATING TRXR- OR PRDX-OVEREXPRESSED CANCERS” (TRIACT THERAPEUTICS, INC., priority 2017, published 2020)

Key:
[1] = test system: newly diagnosed glioblastoma multiforme (GBM); test: Phase II clinical trial GBM, overall survival; assay type: in vivo, human
Excerpt: For assessing the efficacy of the treatment in terms of overall survival, the overall failure rate were estimated and compared to the failure rate of 0.6 per-person year of follow-up regarding the Phase III trial done by Stupp et al. in the same patient population treated with RT plus concomitant and adjuvant temozolomide.
The primary endpoint was death due to all causes. The survival time is defined from time of histological diagnosis to death occurrence. The overall failure rate was expressed as hazard of failure per person-year of follow-up. The total patient population for this part of the study was defined as all patients who have met the eligibility criteria, not met ineligibility criteria, and signed patient informed consent.
It yield above 90% power to detect a 30% reduction in hazard rate with observed hazard ratio of 0.7 (0.42 vs. 0.6) at an alpha level of 0.1 to be significant. The overall failure rate was estimated by dividing the number of events (deaths) by the total exposure time in the study cohort along with 95% confidence intervals. Survival probability and median time of survival was calculated using Kaplan-Meier method.

purified rat liver TrxR = target: T1, purified rat liver TrxR (Rattus norvegicus, UniProt O89049); test: In vitro TrxR activity (DTNB reduction assay); assay type: biochemical; conditions: 100 μM Iniparib, 200 μM NADPH, up to 120 min
T1 construct: Wild type TrxR purified from rat liver was from Sigma-Aldrich Chemicals; purchased Sigma-Aldrich Chemicals; host or cells: rat liver (tissue-purified)

TrxR1 = target: T2, TrxR1 (Homo sapiens, UniProt Q16881); test: Mass spectrometry of immunoprecipitated TrxR1 modified by Iniparib in HCT116 cells; assay type: cell-based; set-up: TrxR1 and TrxR2 were immunoprecipitated from octylglucoside cell extracts (12 mg proteins); endogenous in cells; host or cells: HCT116 (BSO-pretreated); conditions: for TrxR1 modified on Sec residue: 100 μM, GSH-depleted HCT116
T2 sequence (Q16881 1-499 isoform Q16881-5): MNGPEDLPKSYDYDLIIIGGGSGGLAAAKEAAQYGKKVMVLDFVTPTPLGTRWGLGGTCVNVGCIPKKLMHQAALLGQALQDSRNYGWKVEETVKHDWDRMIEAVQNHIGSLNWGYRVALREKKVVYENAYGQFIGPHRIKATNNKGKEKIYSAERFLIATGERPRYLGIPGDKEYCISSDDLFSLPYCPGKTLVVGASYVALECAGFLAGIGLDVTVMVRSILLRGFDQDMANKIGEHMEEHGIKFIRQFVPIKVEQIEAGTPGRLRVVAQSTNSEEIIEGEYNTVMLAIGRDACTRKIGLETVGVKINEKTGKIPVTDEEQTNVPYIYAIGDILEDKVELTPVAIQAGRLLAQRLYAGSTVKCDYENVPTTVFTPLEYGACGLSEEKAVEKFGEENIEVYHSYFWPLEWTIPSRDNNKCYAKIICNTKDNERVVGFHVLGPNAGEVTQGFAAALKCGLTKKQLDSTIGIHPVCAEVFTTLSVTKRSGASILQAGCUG
Procedure: After separation by SDS-PAGE under reducing conditions and PageBlue® protein staining (Thermo scientific), bands of interest were excised, reduced with DTT, alkylated with iodoacetamide and in-gel digested with trypsin (Promega), according to the method of Shevchenko et al. (24). Peptides were extracted with 50 mM ammonium bicarbonate and 50% acetonitrile in 0.2% formic acid and analyzed by Nano LC-MS/MS after partial evaporation in a speed-vac concentrator. LC-MS/MS experiments were performed on an NanoAcquity UPLC (Waters) coupled to a hybrid LTQ Orbitrap Velos mass spectrometer (Thermo Fisher Scientific) equipped with a nanoelectrospray source. Tryptic digests were loaded onto a nanoAcquity UPLC Trap column (Symmetry C18, 5 μm, 180 μm×20 mm, Waters) and washed with 0.2% FA at 20 μl/min for 5 min. Peptides were then eluted on a C18 reverse-phase nanoAcquity column (BEH130 C18, 1.7 μm, 75 μm×250 mm, Waters) with a linear gradient of 7-30% solvent B (H2O/CH3CN/HCOOH, 10:90:0.2, by vol.) for 85 min, 30-90% solvent B for 10 min, and 90% solvent B for 5 min, at a flow rate of 250 nL/min. The mass spectrometer was operated in the data-dependent mode to automatically switch between MS and MS/MS acquisition. Survey full scan MS spectra (m/z 300-1,600) were acquired in the Orbitrap with a resolution of 60,000 at m/z 400. The AGC was set to 1×10^6 with a maximum injection time of 100 ms. The most intense ions (up to 20) were then isolated for fragmentation in the LTQ linear ion trap with normalized collision energy of 28% at the default activation q of 0.25 with an AGC of 5×10^3 and a maximum injection time of 200 ms. The dynamic exclusion time window was set to 80 s. LC-MS/MS data, acquired using the Xcalibur software (Thermo-Fisher Scientific), were processed using a homemade Visual Basic program software developed using XRawfile libraries (distributed by Thermo-Fisher Scientific) to generate a MS/MS peak list (MGF file) which will be used for database searching. This MGF file contained the exact parent mass and the retention time (RT) associated with each MS/MS spectrum. The exact parent mass is the 12C isotope ion mass of the most intense isotopic pattern detected on the high resolution Orbitrap MS parallel scan and included in the MS/MS selection window. The RT is issued from the LTQ-MS/MS scan. Database searches were done using our internal MASCOT server (version 2.1, matrix Science) using the SwissProt human database. […] The precursor mass tolerance was set to 5 ppm and the fragment ion tolerance was set to 0.5 Da. The number of missed cleavage sites for trypsin was set to 3. Mascot result files (“.dat” files) were imported into Scaffold software. Scaffold (version 3.4.5, Proteome software Inc., Portland, Oreg.) was used to validate MS/MS based peptide and protein identifications. Queries were also used for XTandem parallel Database Search. The compiled results of both database searches were exported.

[2] = test system: Trx, JNK, p38MAPK, PARP in HCT116 cells; test: Cell death signaling western blots (Trx oxidation, phospho-JNK, phospho-p38MAPK, cleaved-PARP)
Procedure: Cells extracts were analyzed by SDS-PAGE either under reducing conditions or under non-reducing conditions in the case of Trx blot followed by blots anti-phospho-JNK, anti-phospho-p38MAPK, anti-cleaved-PARP and anti-Trx. Results are representative of three independent experiments.
After 2 h at 4° C., lysates were clarified by centrifugation and protein amounts were measured using the BCA assay (Pierce, Thermo scientific).
Equal amounts of proteins were resolved by SDS-PAGE under either non-reducing or reducing (5% 2-mercaptoethanol, 20 min at 60° C.) conditions, using 4-20% gels (Novex, Invitrogen), then subjected to semi-dry electrophoretic transfer onto nitrocellulose membranes.

ΔSec human TrxR1 = target: T3, ΔSec human TrxR1 (Homo sapiens, UniProt Q16881); test: Electron paramagnetic resonance, DEPMPO spin trapping; assay type: biochemical; conditions: ΔSec-TrxR1, absence of auranofin
T3 construct: purchased Abnova

T1 sequence (O89049 whole entry): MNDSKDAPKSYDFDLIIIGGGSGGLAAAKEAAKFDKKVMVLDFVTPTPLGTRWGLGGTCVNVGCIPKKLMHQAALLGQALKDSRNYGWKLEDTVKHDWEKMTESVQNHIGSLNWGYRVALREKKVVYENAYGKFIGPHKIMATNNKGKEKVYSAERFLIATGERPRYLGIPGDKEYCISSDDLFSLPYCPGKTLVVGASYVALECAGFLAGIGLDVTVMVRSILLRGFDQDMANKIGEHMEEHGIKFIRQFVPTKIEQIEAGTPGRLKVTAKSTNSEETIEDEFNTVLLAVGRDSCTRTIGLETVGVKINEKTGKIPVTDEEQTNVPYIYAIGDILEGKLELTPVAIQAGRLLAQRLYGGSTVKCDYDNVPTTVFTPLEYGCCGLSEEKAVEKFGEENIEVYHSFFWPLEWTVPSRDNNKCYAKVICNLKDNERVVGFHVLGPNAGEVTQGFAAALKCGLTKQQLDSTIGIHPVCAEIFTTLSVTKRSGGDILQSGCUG

## NC(=O)c1ccc(I)c([N+](=O)[O-])c1 [Iniparib, 4-iodo-3-nitrobenzamide]
[1]; Phase 2, N = 76
  2 Year Survival: 42.1 % patients
  3 Year Survival: 23.7 % patients
[1]; single arm phase 2
  reduced HR versus Stupp et al 2005: ≥ 25%
Purified rat liver TrxR
  TrxR reductase activity: time-dependent inhibition of its reductase activity
TrxR1; 1 h
  TrxR1 modified on both adjacent Cys and Sec residues: 0.8%
  TrxR1 modified on Sec residue: 50%
TrxR1; 4 h
  5 other TrxR1 peptides modified on Cys residues, altogether: less than 7 % of the total protein
  TrxR1 modified on both adjacent Cys and Sec residues: 4.7%
  TrxR1 modified on Sec residue: 67%
[2]; GSH-depleted HCT116, 100 μM, persisted until 24 h
  JNK activation, time of occurrence: 6 h
[2]; GSH-depleted HCT116, 7 h or 24 h
  p38MAPK and JNK phosphorylation: activation of both p38MAPK and JNK phosphorylation
[2]; GSH-depleted HCT116, 7 h or 24 h, 100 μM Iniparib, 1 μM Auranofin, 100 nM Staurosporin
  Trx oxidation: oligomeric/oxidized form of Trx accumulated
ΔSec human TrxR1
  DEPMPO/HOO• adduct signal: increase
  DEPMPO/HO• adduct signal: modest increase
